Assay results as given in patent US11938177B2, “Peptide vaccine formulations and use thereof for inducing an immune response” (The United States of America, as represented by the …, priority 2016, dated 2024).
Square brackets hold non-standard residues; d marks the D form. Ends that are not written are not given here. Peptide text beside a SMILES is read from it. Lys(N3) = [N-]=[N+]=NCCCC[C@H](N)C(=O)O

Key:
[1] = Solubility of synthetic long peptides in aqueous buffer (PBS pH 7.4, bright field microscopy); assay type: physicochemical
Experimental: FIGS. 2A-2E: Impact of adjuvant and the composition of amino acids flanking minimal epitopes on CD8 T cell responses induced by synthetic long peptide vaccines. (2A and 2B) Synthetic long peptides delivering the minimal CTL epitope from Ovalbumin (OVA257-264: SIINFEKL, SEQ ID NO: 1) were prepared with either hydrophobic or hydrophilic flanking sequences to provide insoluble (LSI, 1) or soluble (LSS, 3) peptides alone or linked to a TLR-7/8a through a C-terminal azide to yield a LSI-7/8a (2) and LSS-7/8a (4). Bright field microscopy images are shown of […] at 0.1 mg/mL in PBS at pH 7.4. (2C) The TLR-7/8a adjuvant was delivered as either a small molecule (7/8a, 5) or as a particle (PP-7/8a, 6) with the peptide antigens. (2D and 2E) Long peptides (4 nmol) alone or admixed with or covalently attached to adjuvant (4 nmol) were subcutaneously administered into the hind footpads of mice at days 0 and 14. At day 28, tetramer+ CD8 T cell responses were evaluated from whole blood of mice (n=5-25).
FIGS. 4A-4G: Influence of neoantigen flanking sequences on long peptide morphology and CD8 T cell immunity. (4A) The sequences flanking two minimal CD8 T cell neoantigen epitopes, Reps1 (7) and Irgq (9), derived from murine MC38 […] were exchanged to create two chimeric synthetic long peptides, Reps1 FS (8) and Irgq FS (10). Bright field microscopy images are shown for peptides 7-10 at 0.1 mg/mL in PBS at pH 7.4. (4B-4G) The synthetic long peptide-based neoantigens (7-10) (4 nmol) were admixed with adjuvant (4 nmol) and subcutaneously administered into the hind footpads of C57BL/6 mice at days 0 and 14 and on day 28 whole blood was assessed for the percent of total CD8 T cells that were dextramer^+ for Reps1 (4B) and Irgq (4C); the percent of total CD8 T cells that were IFNγ following stimulation with either Reps1 (4D) or Irgq (4E); or, the percent of total CD4 T cells that were IFNγ following stimulation with either Reps1 (4F) or Irgq (4G). Data on log scale are reported as geometric mean with 95% confidence interval (CI). Data are representative of two or more independent experiments. Student's T test was used for comparison of 2 groups; ns, not significant (P>0.05); *, P<0.05; **, P<0.01.
Soluble: Capable of becoming molecularly or ionically dispersed in a solvent to form a homogeneous solution. […] Solubility can be determined visually or using spectroscopic techniques. Turbidity measurements allow for solubility determination indirectly by using a spectrophotometer to measure absorbance in the visible spectrum, typically between 300-500 nm; insoluble materials scatter light that reduces transmittance, leading to increases in measured absorbance (OD). Herein, absorbance measurements at 490 nm were used to assess solubility. […]

[2] = side chain group (epsilon amine; gamma carboxylic acid); cited from earlier work

Compound	solubility in aqueous buffers [1]	pKa [2]
CC[C@H](C)[C@H](NC(=O)[C@@H](NC(=O)[C@@H](N)CO)[C@@H](C)CC)C(=O)N[C@@H](CC(N)=O)C(=O)N[C@@H](Cc1ccccc1)C(=O)N[C@@H](CCC(=O)O)C(=O)N[C@@H](CCCCN)C(=O)N[C@@H](CC(C)C)C(=O)N[C@H](C(=O)N[C@@H](Cc1ccccc1)C(=O)N1CCC[C@H]1C(=O)N[C@@H](CCCNC(=N)N)C(=O)N[C@@H](CO)C(=O)N1CCC[C@H]1C(=O)N[C@H](C(=O)N[C@H](C(=O)N[C@@H](Cc1ccccc1)C(=O)N[C@@H](Cc1ccc(O)cc1)C(=O)N[C@@H](CC(N)=O)C(=O)N[C@H](C(=O)N1CCC[C@H]1C(=O)N1CCC[C@H]1C(=O)N[C@@H](CCSC)C(=O)N1CCC[C@H]1C(=O)N[C@@H](CC(C)C)C(=O)N1CCC[C@H]1C(=O)N1CCC[C@H]1C(=O)N[C@@H](CO)C(=O)N[C@@H](CCC(N)=O)C(=O)N[C@@H](CC(C)C)C(=O)N[C@@H](CCCCN=[N+]=[N-])C(=O)O)[C@@H](C)CC)C(C)C)[C@@H](C)O)C(C)C [LSI]	insoluble	–
KARDETAQLANDVVLGAAPLFVPPAD [Reps1 FS]	water-soluble	–
NCCCC[C@H](N)C(=O)O [Lysine]	–	~10.7
GRVLELFRAAALLNSAVLQIMELCGATR [Irgq FS]	assembled into an aggregate	–
CC[C@H](C)[C@H](NC(=O)[C@@H](NC(=O)[C@@H](N)CO)[C@@H](C)CC)C(=O)N[C@@H](CC(N)=O)C(=O)N[C@@H](Cc1ccccc1)C(=O)N[C@@H](CCC(=O)O)C(=O)N[C@@H](CCCCN)C(=O)N[C@@H](CC(C)C)C(=O)N[C@H](C(=O)N[C@@H](CCCCN)C(=O)N1CCC[C@H]1C(=O)N[C@@H](CCCNC(=N)N)C(=O)N[C@@H](CO)C(=O)N1CCC[C@H]1C(=O)N[C@H](C(=O)N[C@@H](CCCNC(=N)N)C(=O)N[C@@H](Cc1ccccc1)C(=O)N[C@@H](CC(=O)O)C(=O)N[C@@H](CC(N)=O)C(=O)N[C@@H](CO)C(=O)N[C@@H](CCCCN)C(=O)N1CCC[C@H]1C(=O)N[C@@H](CO)C(=O)N1CCC[C@H]1C(=O)N[C@@H](CCC(=O)O)C(=O)N1CCC[C@H]1C(=O)N[C@@H](CCCCN)C(=O)N[C@@H](CO)C(=O)N[C@@H](CCC(N)=O)C(=O)N[C@@H](CC(=O)O)C(=O)N[C@@H](CCCCN=[N+]=[N-])C(=O)O)[C@@H](C)O)C(C)C [LSS] (H-SIINFEKLVKPRSPTRFDNSKPSPEPKSQD[Lys(N3)]-OH)	soluble	–
